Tests used:
CK1α = target: T1, CK1α (Homo sapiens, UniProt P48729+Q96SW2); assay: Western blot, degradation of substrate protein in hPBMCs; assay type: cell-based
T1 construct: effects of the compounds of the present disclosure on the expression of target proteins in cells; endogenous in cells; host or cells: human PBMCs (Milecell Biotechnologies)
Experimental: (§1) Conventional Western blot assay was performed to evaluate the effects of the compounds of the present disclosure on the expression of target proteins in cells. • (1) Cell Seeding and Protein Harvesting: Human peripheral blood mononuclear cells (hPBMCs) at a density of 1×10^6 cells/mL were thawed according to the PBMC Recovery Protocol (Milecell Biotechnologies Inc, Shanghai). […] After 24 hours of compounds treatment, cells were harvested and lysed in RIPA protein lysate containing protease inhibitors on ice for 30 min, followed by centrifugation. The supernatant was aspirated as the extracted total cell protein. The protein concentration of the supernatant was determined using the conventional BCA (Bicinchoninic Acid) assay. • (2) To the collected supernatant, 5X SDS sample loading buffer was added, followed by denaturation at 95°C for 5 minutes. The denatured samples were then separated by SDS-PAGE electrophoresis on a polyacrylamide gel, transferred onto a nitrocellulose membrane (0.45 µm NC membrane), blocked with blocking buffer at room temperature for 1 hour, and subjected to antibody incubation and development procedures according to the antibody manufacturer's instructions (Cell Signaling Technology Company).
(§2) Half-Maximal Degradation Concentration value (the drug concentration required for degrading proteins by 50%, abbreviated as DC50) reads method: comparing the grayscale values of Western blot bands from drug-treated samples with those from blank DMSO-treated controls, and identifying the drug concentration range at which the grayscale value is half that of the DMSO-treated control bands.
(§3) DC50 values can be calculated using ImageJ software to measure grayscale values of Western blot bands from drug-treated samples. The concentration-response curve is fitted to estimate the drug concentration corresponding to half the grayscale value.
(§4) Target protein remaining (%) refers to the percentage of target protein remaining in cells after treatment with protein degrader compounds.
(§5) Calculation method for target protein remaining (%): Use ImageJ software to measure grayscale values of Western blot bands from drug (protein degrader)-treated samples. The grayscale value of drug-treated bands is divided by that of internal control protein bands, and the resulting quotient is normalized to obtain the relative percentage of remaining target protein after protein degrader treatment.
(§6) Target protein degradation rate (%) = 1−target protein remaining (%). [formula]

IKZF1 = target: T2, IKZF1 (Homo sapiens, UniProt Q13422+Q96SW2); assay: as above; assay type: cell-based
T2 construct: effects of the compounds of the present disclosure on the expression of target proteins in cells; endogenous in cells; host or cells: human PBMCs (Milecell Biotechnologies)
Experimental: as §1, §2, §3, §4, §5, §6

IKZF2 = target: T3, IKZF2 (Homo sapiens, UniProt Q96SW2+Q9UKS7); assay: as above; assay type: cell-based
T3 construct: effects of the compounds of the present disclosure on the expression of target proteins in cells; endogenous in cells; host or cells: human PBMCs (Milecell Biotechnologies)
Experimental: as §1, §2, §3, §4, §5, §6

IKZF3 = target: T4, IKZF3 (Homo sapiens, UniProt Q96SW2+Q9UKT9); assay: as above; assay type: cell-based
T4 construct: effects of the compounds of the present disclosure on the expression of target proteins in cells; endogenous in cells; host or cells: human PBMCs (Milecell Biotechnologies)
Experimental: as §1, §2, §3, §4, §5, §6

WEE1 = target: T5, WEE1 (Homo sapiens, UniProt P30291+Q96SW2); assay: as above; assay type: cell-based
T5 construct: effects of the compounds of the present disclosure on the expression of target proteins in cells; endogenous in cells; host or cells: human PBMCs (Milecell Biotechnologies)
Experimental: as §1, §2, §3, §4, §5, §6

GSPT1 = assay: as above; assay type: cell-based, Human
Experimental: as §1, §2, §3, §4, §5, §6

[1] = target: T6, human Cereblon WT GST-tagged protein (Homo sapiens, UniProt Q96SW2); assay: CRBN-binding affinity, HTRF (CEREBLON BINDING kit); details: for inhibition at 0.5 µM: read-out: Inhibition Rate at 0.5 µM (%); for inhibition at 2 µM: read-out: Inhibition Rate at 2 µM (%)
T6 construct: purchased CISBIO 64BDCRBNPEH

[2] = Western blot, 24 hours of compound treatment, compounds tested at 50 nM and 500 nM (concentration for the table not stated)
[3] = 24 hours treatment, compounds at 50 nM and 500 nM (concentration behind the class not stated)

T5 sequence (P30291 whole entry): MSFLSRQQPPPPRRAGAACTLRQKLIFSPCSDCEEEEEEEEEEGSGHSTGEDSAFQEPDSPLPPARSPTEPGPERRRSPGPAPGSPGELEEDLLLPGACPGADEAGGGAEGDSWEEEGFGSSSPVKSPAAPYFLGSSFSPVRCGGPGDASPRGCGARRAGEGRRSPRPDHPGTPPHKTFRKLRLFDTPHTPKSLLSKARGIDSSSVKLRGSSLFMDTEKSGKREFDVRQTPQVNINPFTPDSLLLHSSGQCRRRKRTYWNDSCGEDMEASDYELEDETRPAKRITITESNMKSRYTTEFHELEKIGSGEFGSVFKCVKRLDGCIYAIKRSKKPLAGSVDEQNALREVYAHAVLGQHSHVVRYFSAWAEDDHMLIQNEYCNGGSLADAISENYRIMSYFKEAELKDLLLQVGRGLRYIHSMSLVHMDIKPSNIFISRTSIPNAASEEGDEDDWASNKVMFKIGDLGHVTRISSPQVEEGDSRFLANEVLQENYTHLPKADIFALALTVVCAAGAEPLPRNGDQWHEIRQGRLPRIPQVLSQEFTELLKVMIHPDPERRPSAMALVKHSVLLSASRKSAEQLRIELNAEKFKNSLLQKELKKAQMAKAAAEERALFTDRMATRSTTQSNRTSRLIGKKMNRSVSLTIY
T5 sequence (Q96SW2 whole entry): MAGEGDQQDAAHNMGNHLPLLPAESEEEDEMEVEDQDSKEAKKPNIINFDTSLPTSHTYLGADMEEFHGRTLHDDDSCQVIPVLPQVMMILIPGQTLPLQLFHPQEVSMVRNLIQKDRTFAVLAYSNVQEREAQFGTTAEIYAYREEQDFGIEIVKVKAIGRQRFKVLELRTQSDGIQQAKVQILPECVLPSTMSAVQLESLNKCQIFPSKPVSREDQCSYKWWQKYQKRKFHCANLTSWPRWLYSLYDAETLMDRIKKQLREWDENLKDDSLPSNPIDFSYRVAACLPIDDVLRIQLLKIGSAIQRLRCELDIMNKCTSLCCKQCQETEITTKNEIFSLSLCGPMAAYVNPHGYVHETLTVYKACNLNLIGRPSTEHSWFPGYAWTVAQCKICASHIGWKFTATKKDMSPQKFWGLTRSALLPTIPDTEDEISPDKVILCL
T5 sequence (Q16531 whole entry partner): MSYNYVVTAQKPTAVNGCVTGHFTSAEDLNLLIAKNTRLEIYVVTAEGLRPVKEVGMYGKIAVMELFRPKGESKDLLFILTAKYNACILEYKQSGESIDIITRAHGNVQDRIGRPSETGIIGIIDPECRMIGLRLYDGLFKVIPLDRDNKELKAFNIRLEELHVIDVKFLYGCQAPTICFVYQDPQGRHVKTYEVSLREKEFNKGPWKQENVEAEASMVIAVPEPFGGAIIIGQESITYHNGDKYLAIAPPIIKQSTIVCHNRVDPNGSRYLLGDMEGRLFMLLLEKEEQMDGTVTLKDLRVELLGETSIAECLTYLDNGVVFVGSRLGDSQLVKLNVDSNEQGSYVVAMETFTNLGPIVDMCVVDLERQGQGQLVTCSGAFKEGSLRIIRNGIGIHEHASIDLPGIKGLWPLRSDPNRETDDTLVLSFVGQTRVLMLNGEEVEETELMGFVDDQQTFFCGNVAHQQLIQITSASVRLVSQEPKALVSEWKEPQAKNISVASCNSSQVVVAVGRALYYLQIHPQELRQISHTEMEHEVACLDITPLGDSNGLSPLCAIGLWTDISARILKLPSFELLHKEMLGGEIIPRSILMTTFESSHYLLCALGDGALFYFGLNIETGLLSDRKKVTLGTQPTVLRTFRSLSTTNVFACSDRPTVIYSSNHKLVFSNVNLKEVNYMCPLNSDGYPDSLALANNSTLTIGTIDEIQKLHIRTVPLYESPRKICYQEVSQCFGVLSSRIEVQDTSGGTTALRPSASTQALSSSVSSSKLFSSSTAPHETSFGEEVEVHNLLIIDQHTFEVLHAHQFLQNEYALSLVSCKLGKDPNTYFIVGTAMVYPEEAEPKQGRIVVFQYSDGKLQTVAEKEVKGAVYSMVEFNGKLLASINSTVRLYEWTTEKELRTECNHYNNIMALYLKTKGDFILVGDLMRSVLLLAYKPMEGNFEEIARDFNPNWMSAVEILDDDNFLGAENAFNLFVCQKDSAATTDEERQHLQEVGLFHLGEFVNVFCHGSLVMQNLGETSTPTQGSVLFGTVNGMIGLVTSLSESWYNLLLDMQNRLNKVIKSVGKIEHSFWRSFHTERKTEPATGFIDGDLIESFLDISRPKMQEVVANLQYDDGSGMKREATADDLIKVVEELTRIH
T1 sequence (P48729 whole entry): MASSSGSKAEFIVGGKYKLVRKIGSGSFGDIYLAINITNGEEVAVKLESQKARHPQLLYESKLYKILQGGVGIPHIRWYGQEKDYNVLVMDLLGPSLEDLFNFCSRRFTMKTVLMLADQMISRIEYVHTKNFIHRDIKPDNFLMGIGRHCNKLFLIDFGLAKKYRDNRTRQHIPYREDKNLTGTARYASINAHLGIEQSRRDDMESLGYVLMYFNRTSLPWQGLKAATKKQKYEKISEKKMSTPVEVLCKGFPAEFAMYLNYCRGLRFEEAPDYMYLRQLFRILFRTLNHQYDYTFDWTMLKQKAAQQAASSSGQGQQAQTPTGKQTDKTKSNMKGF
T1 sequence (Q96SW2 whole entry): as the sequence (Q96SW2 whole entry) above
T1 sequence (Q16531 whole entry partner): as the sequence (Q16531 whole entry partner) above
T3 sequence (Q9UKS7 whole entry): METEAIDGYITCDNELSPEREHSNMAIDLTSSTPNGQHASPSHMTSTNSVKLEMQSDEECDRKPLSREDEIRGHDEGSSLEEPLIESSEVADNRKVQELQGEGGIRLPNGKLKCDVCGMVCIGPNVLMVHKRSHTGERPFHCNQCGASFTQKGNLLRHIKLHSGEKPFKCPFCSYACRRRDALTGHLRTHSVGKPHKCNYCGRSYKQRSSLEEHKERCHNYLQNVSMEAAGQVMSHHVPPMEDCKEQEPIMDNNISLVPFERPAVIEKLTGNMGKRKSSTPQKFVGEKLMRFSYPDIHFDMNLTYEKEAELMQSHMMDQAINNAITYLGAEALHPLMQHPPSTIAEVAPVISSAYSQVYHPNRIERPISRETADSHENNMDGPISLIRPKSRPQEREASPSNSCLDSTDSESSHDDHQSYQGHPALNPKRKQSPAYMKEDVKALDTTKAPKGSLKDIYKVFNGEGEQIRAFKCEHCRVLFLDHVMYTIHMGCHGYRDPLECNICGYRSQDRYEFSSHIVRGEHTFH
T3 sequence (Q96SW2 whole entry): as the sequence (Q96SW2 whole entry) above
T3 sequence (Q16531 whole entry partner): as the sequence (Q16531 whole entry partner) above
T4 sequence (Q9UKT9 whole entry): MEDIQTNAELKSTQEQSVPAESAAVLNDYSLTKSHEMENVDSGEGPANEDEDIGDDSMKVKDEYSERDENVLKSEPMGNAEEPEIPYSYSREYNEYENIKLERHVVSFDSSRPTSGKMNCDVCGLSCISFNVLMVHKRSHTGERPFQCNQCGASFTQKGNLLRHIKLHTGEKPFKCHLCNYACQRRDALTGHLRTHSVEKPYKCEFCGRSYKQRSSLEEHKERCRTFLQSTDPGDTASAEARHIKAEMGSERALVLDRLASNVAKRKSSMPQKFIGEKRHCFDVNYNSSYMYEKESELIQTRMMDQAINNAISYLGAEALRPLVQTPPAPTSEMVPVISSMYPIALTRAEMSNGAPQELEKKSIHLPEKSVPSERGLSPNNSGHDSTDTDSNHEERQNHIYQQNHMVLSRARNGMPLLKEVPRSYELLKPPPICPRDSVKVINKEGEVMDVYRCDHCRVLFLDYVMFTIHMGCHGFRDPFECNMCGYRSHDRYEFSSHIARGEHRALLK
T4 sequence (Q96SW2 whole entry): as the sequence (Q96SW2 whole entry) above
T4 sequence (Q16531 whole entry partner): as the sequence (Q16531 whole entry partner) above
T6 sequence (Q96SW2 whole entry): as the sequence (Q96SW2 whole entry) above
T2 sequence (Q13422 whole entry): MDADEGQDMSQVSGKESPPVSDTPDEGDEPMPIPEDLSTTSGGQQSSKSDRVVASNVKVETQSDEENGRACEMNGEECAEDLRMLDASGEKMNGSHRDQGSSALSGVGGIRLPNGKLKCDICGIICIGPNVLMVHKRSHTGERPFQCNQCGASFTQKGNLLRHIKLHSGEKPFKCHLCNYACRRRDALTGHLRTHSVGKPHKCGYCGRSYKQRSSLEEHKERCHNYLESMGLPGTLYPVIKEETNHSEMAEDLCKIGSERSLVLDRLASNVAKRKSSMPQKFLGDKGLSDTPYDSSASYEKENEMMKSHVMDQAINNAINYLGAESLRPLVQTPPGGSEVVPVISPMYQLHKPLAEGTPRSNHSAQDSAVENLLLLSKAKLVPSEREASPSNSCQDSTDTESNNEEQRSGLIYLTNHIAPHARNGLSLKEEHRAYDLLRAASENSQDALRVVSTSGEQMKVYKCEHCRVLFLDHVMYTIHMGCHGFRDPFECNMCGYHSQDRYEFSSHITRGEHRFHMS
T2 sequence (Q96SW2 whole entry): as the sequence (Q96SW2 whole entry) above
T2 sequence (Q16531 whole entry partner): as the sequence (Q16531 whole entry partner) above

O=C1CCC(N2Cc3c(CN4CCN(c5ccccc5Br)CC4)cccc3C2=S)C(=O)N1 (stereo not drawn) [GT-08267, 3-(4-((4-(2-bromophenyl)piperazin-1-yl)methyl)-1-thioxoisoindolin-2-yl)piperidine-2,6-dione] was tested, and the “CK1α substrate protein remaining %” value (CK1α; [2]) was “B (80%< substrate protein remaining %≤ 100%)”, the “IKZF 1 substrate protein remaining %” value (IKZF1; [2]) was “B (80%< substrate protein remaining %≤ 100%)” and the “IKZF2 substrate protein remaining %” value (IKZF2; [2]) was “B (80%< substrate protein remaining %≤ 100%)”. For the same molecule, the “IKZF3 substrate protein remaining %” value (IKZF3; [2]) was “B (80%< substrate protein remaining %≤ 100%)”, the “Wee1 substrate protein remaining %” value (WEE1; [2]) was “A (0% ≤ substrate protein remaining % ≤ 80%)” and the “GSPT1 substrate protein remaining %” value (GSPT1; [2]) was “A (0% ≤ substrate protein remaining % ≤ 80%)”.
For Cc1ccccc1N1CCN(Cc2cccc3c2CN(C2CCC(=O)NC2=O)C3=S)CC1 (stereo not drawn) [GT-08497, 3-(1-thioxo-4-((4-(o-tolyl)piperazin-1-yl)methyl)isoindolin-2-yl)piperidine-2,6-dione], the “CK1α substrate protein remaining %” value (CK1α; [2]) was “B (80%< substrate protein remaining %≤ 100%)”, the “IKZF 1 substrate protein remaining %” value (IKZF1; [2]) was “A (0% ≤ substrate protein remaining % ≤ 80%)” and the “IKZF2 substrate protein remaining %” value (IKZF2; [2]) was “A (0% ≤ substrate protein remaining % ≤ 80%)”. For the same molecule, the “IKZF3 substrate protein remaining %” value (IKZF3; [2]) was “B (80%< substrate protein remaining %≤ 100%)”, the “Wee1 substrate protein remaining %” value (WEE1; [2]) was “A (0% ≤ substrate protein remaining % ≤ 80%)” and the “GSPT1 substrate protein remaining %” value (GSPT1; [2]) was “A (0% ≤ substrate protein remaining % ≤ 80%)”.
With O=C1CCC(N2Cc3c(CN4CCC(c5cccc(F)c5Cl)CC4)cccc3C2=S)C(=O)N1 (stereo not drawn) [GT-08321, 3-(4-((4-(2-chloro-3-fluorophenyl)piperidin-1-yl)methyl)-1-thioxoisoindolin-2-yl)piperidine-2,6-dione] the “CK1α substrate protein remaining %” value (CK1α; [3]) was “B (80%< substrate protein remaining %≤ 100%)”, the “IKZF 1 substrate protein remaining %” value (IKZF1; [3]) was “B (80%< substrate protein remaining %≤ 100%)” and the “IKZF2 substrate protein remaining %” value (IKZF2; [3]) was “B (80%< substrate protein remaining %≤ 100%)”. For the same molecule, the “IKZF3 substrate protein remaining %” value (IKZF3; [3]) was “A (0% ≤ substrate protein remaining % ≤ 80%)”, the “Wee1 substrate protein remaining %” value (WEE1; [3]) was “A (0% ≤ substrate protein remaining % ≤ 80%)” and the “GSPT1 substrate protein remaining %” value (GSPT1; [3]) was “B (80%< substrate protein remaining %≤ 100%)”.
With O=C1CCC(N2Cc3c(CN4CCN(c5cccc(Cl)c5Cl)CC4)cccc3C2=S)C(=O)N1 (stereo not drawn) [GT-08258, 3-(4-((4-(2,3-dichlorophenyl)piperazin-1-yl)methyl)-1-thioxoisoindolin-2-yl)piperidine-2,6-dione] the “CK1α substrate protein remaining %” value (CK1α; [2]) was “B (80%< substrate protein remaining %≤ 100%)”, the “IKZF 1 substrate protein remaining %” value (IKZF1; [2]) was “B (80%< substrate protein remaining %≤ 100%)” and the “IKZF2 substrate protein remaining %” value (IKZF2; [2]) was “B (80%< substrate protein remaining %≤ 100%)”. For the same molecule, the “IKZF3 substrate protein remaining %” value (IKZF3; [2]) was “B (80%< substrate protein remaining %≤ 100%)”, the “Wee1 substrate protein remaining %” value (WEE1; [2]) was “A (0% ≤ substrate protein remaining % ≤ 80%)” and the “GSPT1 substrate protein remaining %” value (GSPT1; [2]) was “A (0% ≤ substrate protein remaining % ≤ 80%)”.
O=C1CCC(N2Cc3c(CN4CC=C(c5cccc(Cl)c5Cl)CC4)cccc3C2=S)C(=O)N1 (stereo not drawn) [GT-08270, 3-(4-((4-(2,3-dichlorophenyl)-3,6-dihydropyridin-1(2H)-yl)methyl)-1-thioxoisoindolin-2-yl)piperidine-2,6-dione] was tested, and the “CK1α substrate protein remaining %” value (CK1α; [2]) was “B (80%< substrate protein remaining %≤ 100%)”, the “IKZF 1 substrate protein remaining %” value (IKZF1; [2]) was “B (80%< substrate protein remaining %≤ 100%)” and the “IKZF2 substrate protein remaining %” value (IKZF2; [2]) was “B (80%< substrate protein remaining %≤ 100%)”. The “IKZF3 substrate protein remaining %” value (IKZF3; [2]) was “B (80%< substrate protein remaining %≤ 100%)”, the “Wee1 substrate protein remaining %” value (WEE1; [2]) was “A (0% ≤ substrate protein remaining % ≤ 80%)” and the “GSPT1 substrate protein remaining %” value (GSPT1; [2]) was “A (0% ≤ substrate protein remaining % ≤ 80%)”.
O=C1CCC(N2Cc3c(CN4CCN(c5c(Cl)ccnc5Cl)CC4)cccc3C2=S)C(=O)N1 (stereo not drawn) [GT-08725, 3-(4-((4-(2,4-dichloropyridin-3-yl)piperazin-1-yl)methyl)-1-thioxoisoindolin-2-yl)piperidine-2,6-dione] was tested, and the “CK1α substrate protein remaining %” value (CK1α; [2]) was “B (80%< substrate protein remaining %≤ 100%)”, the “IKZF 1 substrate protein remaining %” value (IKZF1; [2]) was “B (80%< substrate protein remaining %≤ 100%)” and the “IKZF2 substrate protein remaining %” value (IKZF2; [2]) was “B (80%< substrate protein remaining %≤ 100%)”. For the same molecule, the “IKZF3 substrate protein remaining %” value (IKZF3; [2]) was “B (80%< substrate protein remaining %≤ 100%)”, the “Wee1 substrate protein remaining %” value (WEE1; [2]) was “A (0% ≤ substrate protein remaining % ≤ 80%)” and the “GSPT1 substrate protein remaining %” value (GSPT1; [2]) was “A (0% ≤ substrate protein remaining % ≤ 80%)”.
For O=C1CCC(N2Cc3cc(CN4CCN(c5c(Cl)cncc5Cl)CC4)ccc3C2=S)C(=O)N1 (stereo not drawn) [GT-09246, 3-(5-((4-(3,5-dichloropyridin-4-yl)piperazin-1-yl)methyl)-1-thioxoisoindolin-2-yl)piperidine-2,6-dione], the inhibition at 0.5 µM [1] was 80 to 100% and the inhibition at 2 µM [1] was 80 to 100%.
O=C1CCC(N2Cc3cc(CN4CCN(c5cc(Cl)nnc5Cl)CC4)ccc3C2=S)C(=O)N1 (stereo not drawn) [GT-09248, 3-(5-((4-(3,6-dichloropyridazin-4-yl)piperazin-1-yl)methyl)-1-thioxoisoindolin-2-yl)piperidine-2,6-dione] was tested, and the inhibition at 0.5 µM [1] was 60 to 80% and the inhibition at 2 µM [1] was 80 to 100%.
Work on O=C1CCC(N2Cc3cc(CN4CC(c5ccnc6cc(F)ccc56)C4)ccc3C2=S)C(=O)N1 (stereo not drawn) [GT-09279, 3-(5-((3-(7-fluoroquinolin-4-yl)azetidin-1-yl)methyl)-1-thioxoisoindolin-2-yl)piperidine-2,6-dione] yielded an inhibition at 0.5 µM [1] of 60 to 80% and an inhibition at 2 µM [1] of 80 to 100%.
Molecule O=C1CCC(N2Cc3cc(CN4CCN(c5cnccn5)CC4)ccc3C2=S)C(=O)N1 (stereo not drawn) [GT-09253, 3-(5-((4-(pyrazin-2-yl)piperazin-1-yl)methyl)-1-thioxoisoindolin-2-yl)piperidine-2,6-dione] has an inhibition at 0.5 µM [1] of 60 to 80% and an inhibition at 2 µM [1] of 80 to 100%.
O=C1CCC(N2Cc3cc(CN4CCN(c5ccncc5F)CC4)ccc3C2=S)C(=O)N1 (stereo not drawn) [GT-09237, 3-(5-((4-(3-fluoropyridin-4-yl)piperazin-1-yl)methyl)-1-thioxoisoindolin-2-yl)piperidine-2,6-dione] gave an inhibition at 0.5 µM [1] of 60 to 80% and an inhibition at 2 µM [1] of 80 to 100%.
Cc1cc2c(N3CCN(Cc4ccc5c(c4)CN(C4CCC(=O)NC4=O)C5=S)CC3)ncnc2s1 (stereo not drawn) [GT-09282, 3-(5-((4-(6-methylthieno[2,3-d]pyrimidin-4-yl)piperazin-1-yl)methyl)-1-thioxoisoindolin-2-yl)piperidine-2,6-dione] gave an inhibition at 0.5 µM [1] of 60 to 80% and an inhibition at 2 µM [1] of 80 to 100%.
O=C1CCC(N2Cc3cc(CN4CCN(c5c(F)cncc5Cl)CC4)ccc3C2=S)C(=O)N1 (stereo not drawn) [GT-09243, 3-(5-((4-(3-chloro-5-fluoropyridin-4-yl)piperazin-1-yl)methyl)-1-thioxoisoindolin-2-yl)piperidine-2,6-dione] showed an inhibition at 0.5 µM [1] of 60 to 80% and an inhibition at 2 µM [1] of 80 to 100%.
Cc1nc(C2CCN(Cc3ccc4c(c3)CN(C3CCC(=O)NC3=O)C4=S)CC2)c2c(-c3ccccc3)csc2n1 (stereo not drawn) [GT-09308] was tested, and the inhibition at 0.5 µM [1] was 40 to 53% and the inhibition at 2 µM [1] was 80 to 100%.
O=C1CCC(N2Cc3c(CN4CCN(C(c5ccccn5)c5ccccn5)CC4)cccc3C2=S)C(=O)N1 (stereo not drawn) [GT-08201, 3-(4-((4-(di(pyridin-2-yl)methyl)piperazin-1-yl)methyl)-1-thioxoisoindolin-2-yl)piperidine-2,6-dione] gave an inhibition at 0.5 µM [1] of 40 to 53% and an inhibition at 2 µM [1] of 80 to 100%.
Molecule O=C1CCC(N2Cc3cc(CN4CCN(c5ncnc6scc(-c7ccccc7)c56)CC4)ccc3C2=S)C(=O)N1 (stereo not drawn) [GT-09297, 3-(5-((4-(5-phenylthieno[2,3-d]pyrimidin-4-yl)piperazin-1-yl)methyl)-1-thioxoisoindolin-2-yl)piperidine-2,6-dione] has an inhibition at 0.5 µM [1] of 60 to 80% and an inhibition at 2 µM [1] of 80 to 100%.
Work on O=C1CCC(N2Cc3c(CN4CCN(c5cccs5)CC4)cccc3C2=S)C(=O)N1 (stereo not drawn) [GT-08297, 3-(4-((4-(thiophen-2-yl)piperazin-1-yl)methyl)-1-thioxoisoindolin-2-yl)piperidine-2,6-dione] yielded an inhibition at 0.5 µM [1] of 60 to 80% and an inhibition at 2 µM [1] of 80 to 100%.
O=C1CCC(N2Cc3cc(CN4CCN(c5ccncc5Br)CC4)ccc3C2=S)C(=O)N1 (stereo not drawn) [GT-09236, 3-(5-((4-(3-bromopyridin-4-yl)piperazin-1-yl)methyl)-1-thioxoisoindolin-2-yl)piperidine-2,6-dione] was tested, and the inhibition at 0.5 µM [1] was 60 to 80% and the inhibition at 2 µM [1] was 80 to 100%.
